Data taken from ChEMBL document CHEMBL5505970 (J Med Chem, 2024).
pIC50: −log10 of the molar value. Activity calls are given as the source filed them. No cut-off for these calls is given here.

How the values were obtained:
[1] = Clearance in human hepatocytes at 1 uM measured per million cells by ESI/LC-MS/MS analysis; assay type: ADME, cell-based, Hepatocyte; settings: read-out: CLH
[2] = Clearance in human liver microsomes at 1 uM in presence of NADPH by ESI/LC-MS/MS analysis; assay type: ADME, Microsome; settings: read-out: CLH
[3] = Oral bioavailability in Sprague-Dawley rat at 2.5 to 5 mg/kg formulated as a solution in 5% NMP:95% (10% VitE TPGS in water) measured for 24 hrs by reverse phase liquid chromatography coupled to mass spectrometry; assay type: ADME, organism-based; settings: in vivo, dose 2.5-5 mg/kg
[4] = Clearance in monkey liver microsomes at 1 uM in presence of NADPH by ESI/LC-MS/MS analysis; assay type: ADME, Macaca mulatta, Microsome; settings: rhesus monkey, read-out: CLH
[5] = Clearance in monkey hepatocytes at 1 uM in presence of NADPH by ESI/LC-MS/MS analysis; assay type: ADME, cell-based, Macaca mulatta, Hepatocyte; settings: rhesus monkey
[6] = biological target: T1, Serine/threonine-protein kinase ATR (Homo sapiens, UniProt Q13535); test: Inhibition of ATR in human Jurkat cell lysates at 0.003 to 0.3 uM in presence of biotinylated ADP by KiNativ profiling based mass spectrometry; assay type: subcellular; settings: dose 0.003-0.3 µM
Target sequence in this assay (Q13535 whole entry, looked up): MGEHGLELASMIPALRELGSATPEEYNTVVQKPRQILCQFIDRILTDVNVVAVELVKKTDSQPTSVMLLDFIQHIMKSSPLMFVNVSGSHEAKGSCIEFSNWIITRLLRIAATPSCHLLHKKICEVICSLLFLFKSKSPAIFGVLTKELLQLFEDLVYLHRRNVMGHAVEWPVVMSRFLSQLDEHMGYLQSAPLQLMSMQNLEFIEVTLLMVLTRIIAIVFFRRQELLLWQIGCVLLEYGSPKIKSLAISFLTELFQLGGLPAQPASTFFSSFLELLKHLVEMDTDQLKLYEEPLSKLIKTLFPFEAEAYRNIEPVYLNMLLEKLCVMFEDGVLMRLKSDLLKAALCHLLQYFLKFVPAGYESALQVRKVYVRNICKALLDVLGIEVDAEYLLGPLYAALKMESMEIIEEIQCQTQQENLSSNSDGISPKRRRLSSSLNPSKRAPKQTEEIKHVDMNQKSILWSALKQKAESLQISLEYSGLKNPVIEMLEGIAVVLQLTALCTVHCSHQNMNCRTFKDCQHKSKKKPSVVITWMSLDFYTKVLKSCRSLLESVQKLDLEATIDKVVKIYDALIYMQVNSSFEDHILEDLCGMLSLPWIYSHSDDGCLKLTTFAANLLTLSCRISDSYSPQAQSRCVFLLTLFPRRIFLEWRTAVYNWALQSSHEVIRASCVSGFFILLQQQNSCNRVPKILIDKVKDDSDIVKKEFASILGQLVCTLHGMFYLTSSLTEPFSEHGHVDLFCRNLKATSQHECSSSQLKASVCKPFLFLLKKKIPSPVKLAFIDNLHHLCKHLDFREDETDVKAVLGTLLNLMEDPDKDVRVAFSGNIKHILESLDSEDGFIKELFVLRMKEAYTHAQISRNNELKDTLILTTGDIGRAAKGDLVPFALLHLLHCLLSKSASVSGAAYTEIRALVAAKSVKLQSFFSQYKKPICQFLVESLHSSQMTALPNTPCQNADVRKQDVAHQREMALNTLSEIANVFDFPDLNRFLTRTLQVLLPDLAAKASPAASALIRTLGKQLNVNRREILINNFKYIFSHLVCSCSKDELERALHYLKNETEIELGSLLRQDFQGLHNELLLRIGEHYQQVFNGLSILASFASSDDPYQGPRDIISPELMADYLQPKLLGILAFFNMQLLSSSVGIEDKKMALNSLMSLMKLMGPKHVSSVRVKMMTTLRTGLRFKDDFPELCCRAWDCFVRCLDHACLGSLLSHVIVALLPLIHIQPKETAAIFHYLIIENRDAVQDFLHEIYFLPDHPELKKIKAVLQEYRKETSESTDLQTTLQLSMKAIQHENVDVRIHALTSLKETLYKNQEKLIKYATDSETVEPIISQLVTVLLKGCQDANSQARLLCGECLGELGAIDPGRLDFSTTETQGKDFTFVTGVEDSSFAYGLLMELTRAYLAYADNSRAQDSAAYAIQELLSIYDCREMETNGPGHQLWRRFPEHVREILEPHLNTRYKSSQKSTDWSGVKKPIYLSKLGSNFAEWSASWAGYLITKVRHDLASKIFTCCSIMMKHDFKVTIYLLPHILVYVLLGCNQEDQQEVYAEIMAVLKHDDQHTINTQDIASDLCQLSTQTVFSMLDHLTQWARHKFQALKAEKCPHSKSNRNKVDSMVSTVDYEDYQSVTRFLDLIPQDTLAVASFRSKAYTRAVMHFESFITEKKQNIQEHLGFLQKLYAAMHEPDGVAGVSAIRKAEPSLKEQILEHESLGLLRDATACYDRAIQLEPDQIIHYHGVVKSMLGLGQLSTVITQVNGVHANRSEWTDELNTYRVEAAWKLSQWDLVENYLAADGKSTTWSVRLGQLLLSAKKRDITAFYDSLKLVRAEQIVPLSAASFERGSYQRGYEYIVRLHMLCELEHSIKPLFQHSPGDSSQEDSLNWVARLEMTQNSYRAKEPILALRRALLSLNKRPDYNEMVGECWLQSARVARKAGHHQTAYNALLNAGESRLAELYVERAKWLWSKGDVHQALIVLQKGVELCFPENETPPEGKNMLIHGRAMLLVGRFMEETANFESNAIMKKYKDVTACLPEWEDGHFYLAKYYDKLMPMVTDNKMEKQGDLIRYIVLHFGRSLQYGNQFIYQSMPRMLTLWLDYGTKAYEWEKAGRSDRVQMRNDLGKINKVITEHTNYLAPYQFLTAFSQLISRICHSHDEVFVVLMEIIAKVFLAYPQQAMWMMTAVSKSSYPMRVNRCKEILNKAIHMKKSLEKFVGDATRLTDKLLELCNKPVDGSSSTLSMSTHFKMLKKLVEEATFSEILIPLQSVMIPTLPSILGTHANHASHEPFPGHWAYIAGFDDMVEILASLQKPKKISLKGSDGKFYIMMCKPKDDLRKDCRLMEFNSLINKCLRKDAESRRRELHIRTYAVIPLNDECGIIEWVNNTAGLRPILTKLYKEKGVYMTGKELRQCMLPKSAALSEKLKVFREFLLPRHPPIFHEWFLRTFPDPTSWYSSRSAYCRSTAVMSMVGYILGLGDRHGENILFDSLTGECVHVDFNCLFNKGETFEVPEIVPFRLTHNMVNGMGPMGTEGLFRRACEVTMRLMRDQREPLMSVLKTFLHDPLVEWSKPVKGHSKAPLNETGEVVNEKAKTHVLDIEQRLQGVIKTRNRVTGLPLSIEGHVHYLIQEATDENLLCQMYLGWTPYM

[7] = biological target: Serine/threonine-protein kinase mTOR (Homo sapiens, UniProt P42345); test: Inhibition of mTOR in human Jurkat cell lysates at 0.03 to 0.3 uM in presence of biotinylated ADP by KiNativ profiling based mass spectrometry; assay type: subcellular; settings: dose 0.03-0.3 µM
[8] = biological target: DNA-dependent protein kinase catalytic subunit (Homo sapiens, UniProt P78527); test: Inhibition of DNA-PK in human Jurkat cell lysates at 0.3 uM in presence of biotinylated ADP by KiNativ profiling based mass spectrometry; assay type: subcellular
[9] = Oral bioavailability in Sprague-Dawley rat at 20 mg/kg formulated as suspension in 0.5% methocel and 0.02% SLS measured for 24 hrs by reverse phase liquid chromatography coupled to mass spectrometry; assay type: ADME, organism-based; settings: in vivo
[10] = Oral bioavailability in cynomolgus monkey at 1 mg/kg formulated as suspension in 10% propylene glycol:18% PEG400 in water measured for 24 hrs by reverse phase liquid chromatography coupled to mass spectrometry; assay type: ADME, organism-based, Macaca fascicularis; settings: in vivo
[11] = biological target: T1, Serine/threonine-protein kinase ATR; test: Inhibition of ATR in gemcitabine-stimulated human LoVo cells assessed as decrease in CHK1 phosphorylation at Ser345 residue; assay type: cell-based; settings: lovo
Target sequence in this assay (Q13535 whole entry): as the sequence (Q13535 whole entry, looked up) above

[12] = Toxicity in BALB/c mouse assessed as reduction in bone marrow cell viability at 10 mg/kg, po qd for 3 days by trypan blue exclusion assay; assay type: organism-based; settings: in vivo, 72 h, time 3 day
[13] = Toxicity in BALB/c mouse assessed as reduction in total viable cell counts in femur at 10 mg/kg, po qd for 3 days; assay type: organism-based; settings: in vivo, 72 h, time 3 day
[14] = Toxicity in BALB/c mouse assessed as megakaryocytes in bone marrow at 10 mg/kg, po qd for 3 days; assay type: organism-based; settings: in vivo, 72 h, time 3 day
[15] = Toxicity in BALB/c mouse assessed as late stage erythroblasts in bone marrow at 10 mg/kg, po qd for 3 days and measured at 1 day after treatment discontinuation by flow cytometry; assay type: organism-based; settings: in vivo, 72 h, time 3 day
[16] = Toxicity in BALB/c mouse assessed as late stage erythroblasts in bone marrow at 10 mg/kg, po qd for 3 days and measured at 4 days after treatment discontinuation by flow cytometry; assay type: organism-based; settings: in vivo, 72 h, time 3 day
[17] = Toxicity in BALB/c mouse assessed as increase in proportion of red blood cells in bone marrow at 10 mg/kg, po qd for 3 days; assay type: organism-based; settings: in vivo, 72 h, time 3 day
[18] = Toxicity in BALB/c mouse assessed as red blood cells in bone marrow at 10 mg/kg, po qd for 3 days and measured at 4 days after treatment discontinuation; assay type: organism-based; settings: in vivo, 72 h, time 3 day
[19] = Toxicity in BALB/c mouse assessed as early stage erythroblasts in bone marrow at 10 mg/kg, po qd for 3 days and 4 days off intermittent dosing for 4 cycles by flow cytometry; assay type: organism-based; settings: in vivo, 672 h, time 28 day
[20] = Clearance in mouse liver microsomes at 1 uM in presence of NADPH by ESI/LC-MS/MS analysis; assay type: ADME, Microsome; settings: read-out: CLH
[21] = Toxicity in NOD-SCID mouse xenografted with human Granta-519 cells assessed as changes in body weight at 25 mg/kg, po qd for 5 days and measured at 2 days after drug treatment cessation; assay type: organism-based; settings: in vivo, 120 h, time 5 day
[22] = Toxicity in NOD-SCID mouse xenografted with human Granta-519 cells assessed as changes in body weight at 10 mg/kg, po qd for 7 days; assay type: organism-based; settings: in vivo, 168 h, time 7 day
Granta-519 [23] = test: Antitumor activity against human Granta-519 cells xenografted in NOD-SCID mouse assessed as decrease in tumor volume at 30 mg/kg, po qd for 3 days and measured at 4 days after drug treatment cessation; assay type: functional, organism-based; settings: time 3.0 day
Granta-519 [24] = test: Antitumor activity against human Granta-519 cells xenografted in NOD-SCID mouse assessed as decrease in tumor volume at 25 mg/kg, po qd for 5 days and measured at 2 days after drug treatment cessation; assay type: functional, organism-based; settings: time 5.0 day
Granta-519 [25] = test: Antitumor activity against human Granta-519 cells xenografted in NOD-SCID mouse assessed as decrease in tumor volume at 10 mg/kg, po qd for 7 days; assay type: functional, organism-based; settings: time 7.0 day
[26] = Toxicity in NOD-SCID mouse xenografted with human Granta-519 cells assessed as late stage erythroblasts at 30 mg/kg, po qd for 3 days and measured at 2 days after treatment discontinuation by flow cytometry; assay type: organism-based; settings: in vivo, 72 h, time 3 day
Granta-519 [27] = test: Antitumor activity against human Granta-519 cells xenografted in NOD-SCID mouse assessed as reduction in tumor volume at 5 mg/kg, po qd for 3 days co-administered with PARP inhibitor, niraparib; assay type: functional, organism-based; settings: time 3.0 day
[28] = Toxicity in NOD-SCID mouse xenografted with human Granta-519 cells assessed as early stage erythroblasts in bone marrow at 10 mg/kg, po qd for 3 days co-administered with PARP inhibitor, niraparib and measured at 2 days after treatment cessation by flow cytometry; assay type: organism-based; settings: in vivo, 72 h, time 3 day
[29] = Toxicity in NOD-SCID mouse xenografted with human Granta-519 cells assessed as late stage erythroblasts in bone marrow at 10 mg/kg, po qd for 3 days co-administered with PARP inhibitor, niraparib and measured at 2 days after treatment cessation by flow cytometry; assay type: organism-based; settings: in vivo, 72 h, time 3 day
[30] = Toxicity in NOD-SCID mouse xenografted with human Granta-519 cells assessed as late stage erythroblasts in bone marrow at 10 mg/kg, po qd for 3 days and measured at 4 days after treatment cessation by flow cytometry; assay type: organism-based; settings: in vivo, 72 h, time 3 day
[31] = Toxicity in NOD-SCID mouse xenografted with human Granta-519 cells assessed as red blood cells count at 5 mg/kg, po qd for 3 days and 4 days off intermittent dosing for 3 cycles co-administered with PARP inhibitor, niraparib and measured on day 21; assay type: organism-based; settings: in vivo, 504 h, time 21 day
[32] = Toxicity in NOD-SCID mouse xenografted with human Granta-519 cells assessed as reticulocytes count at 5 mg/kg, po qd for 3 days and 4 days off intermittent dosing for 3 cycles co-administered with PARP inhibitor, niraparib from day 3 to day 6 in each cycle and measured on day 21; assay type: organism-based; settings: in vivo, 504 h, time 21 day

For `C[C@@H]1COCCN1c1cc([C@]2(O)C[C@H]3CC[C@@H](C2)O3)c2cnn(-c3cc[nH]n3)c2n1` [CAMONSERTIB], the hepatocyte CLint at 1 µM [1] was 1.5 µL/min/1e6 cells, the microsomal CLint at 1 µM [2] was under 11.6 µL/min/mg and the bioavailability [3] was 66%. For the same molecule, the microsomal CLint at 1 µM [4] was 26 µL/min/mg, the CLH [5] was 3.6 µL/min and the inhibition [6] was “Active”. For the same molecule, the inhibition [7] was “Active”, the inhibition [8] was “Active” and the bioavailability [9] was 45%. The bioavailability [10] was 56%, the pIC50 [11] was 9.48 and the Activity [12] was “Toxic”. The Activity [13] was “Toxic”, the Activity [14] was “Non-Toxic” and the Activity [15] was “Non-Toxic”. For the same molecule, the Activity [16] was “Non-Toxic”, the Activity [17] was “Toxic” and the Activity [18] was “Non-Toxic”. The Activity [19] was “Non-Toxic”, the microsomal CLint at 1 µM [20] was 25 µL/min/mg and the Activity [21] was “Non-Toxic”. For the same molecule, the Activity [22] was “Non-Toxic”, the Activity (Granta-519 [23]) was “Active” and the Activity (Granta-519 [24]) was “Active”. For the same molecule, the Activity (Granta-519 [25]) was “Active”, the Activity [26] was “Non-Toxic” and the Activity (Granta-519 [27]) was “Active”. For the same molecule, the Activity [28] was “Non-Toxic”, the Activity [29] was “Non-Toxic” and the Activity [30] was “Non-Toxic”. The Activity [31] was “Non-Toxic” and the Activity [32] was “Non-Toxic”.
